{
  "source": "the SangsterLogP compilation",
  "data": [
    {"assay": "method code SF-HPLC, from DOI: 10.1016/s0968-0896(00)00015-8, PMID: 10819159", "conditions": "pH 7.4", "values": [
      {"smiles": "COC(=O)C1CCCN1C(=O)OCN(c1ccc([N+](=O)[O-])cc1Oc1ccccc1)S(C)(=O)=O", "note": "(stereo not given)", "logD": 2.85},
      {"smiles": "Nc1ccc(S(=O)(=O)N(COC(=O)c2ccccc2)c2ncccn2)cc1", "logD": 2.15},
      {"smiles": "CS(=O)(=O)N(COC(=O)c1ccccc1)c1ccc([N+](=O)[O-])cc1Oc1ccccc1", "logD": 3.97},
      {"smiles": "CCOC(=O)CNC(=O)OCN(c1ccc([N+](=O)[O-])cc1Oc1ccccc1)S(C)(=O)=O", "logD": 2.28},
      {"smiles": "CCOC(=O)CN(C)C(=O)OCN(c1ccc([N+](=O)[O-])cc1Oc1ccccc1)S(C)(=O)=O", "logD": 2.2},
      {"smiles": "Nc1ccc(S(=O)(=O)N(COC(=O)c2ccccc2)c2cncs2)cc1", "logD": 1.47},
      {"smiles": "CC(C)(C)C(=O)OCN(Nc1ccc([N+](=O)[O-])cc1Oc1ccccc1)S(C)(=O)=O", "logD": 3.96},
      {"smiles": "Cc1noc(N(COC(=O)c2ccccc2)S(=O)(=O)c2ccc(N)cc2)c1C", "logD": 2.83},
      {"smiles": "Cc1cc(C)nc(N(COC(=O)c2ccccc2)S(=O)(=O)c2ccc(N)cc2)n1", "logD": 3.59},
      {"smiles": "Cc1cc(C)nc(N(COC(=O)C(C)(C)C)S(=O)(=O)c2ccc(N)cc2)n1", "logD": 3.07}
    ]}
  ]
}
